Results: PubChem BioAssay AID2060497 (Molecular Pharmacology Branch, DTP, NCI, 2025)

Test system: 317291-083-R-J1-PDC complex spheroids, viability
Experiment: Anticancer human tumor 317291-083-R-J1-PDC patient-derived soft tissue sarcoma cell line growth inhibition [GQUAD]
Conditions: for IC50: curve of first compound; for viability, T/C: stronger effect = lower value
How it was run: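 Multi-cell-type spheroids of tumor cells with HUVEC and mesenchymal stem cells, treated with drug combinations. Concentrations descend in half-log steps from near clinical Cmax, or from 10 microM where Cmax is unknown; viability read-out.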

[1] = second compound 0.0316 µM, first compound 0.0316 µM
[2] = second compound 0.0316 µM, first compound 0.1 µM
[3] = second compound 0.0316 µM, first compound 0.316 µM
[4] = second compound 0.0316 µM, first compound 1 µM
[5] = second compound 0.0316 µM, first compound 3.16 µM
[6] = second compound 0.0316 µM, first compound 10 µM
[7] = second compound 0.1 µM, first compound 0.0316 µM
[8] = second compound 0.1 µM, first compound 0.1 µM
[9] = second compound 0.1 µM, first compound 0.316 µM
[10] = second compound 0.1 µM, first compound 1 µM
[11] = second compound 0.1 µM, first compound 3.16 µM
[12] = second compound 0.1 µM, first compound 10 µM
[13] = second compound 0.316 µM, first compound 0.0316 µM
[14] = second compound 0.316 µM, first compound 0.1 µM
[15] = second compound 0.316 µM, first compound 0.316 µM
[16] = second compound 0.316 µM, first compound 1 µM
[17] = second compound 0.316 µM, first compound 3.16 µM
[18] = second compound 0.316 µM, first compound 10 µM
[19] = second compound 1 µM, first compound 0.0316 µM
[20] = second compound 1 µM, first compound 0.1 µM
[21] = second compound 1 µM, first compound 0.316 µM
[22] = second compound 1 µM, first compound 1 µM
[23] = second compound 1 µM, first compound 3.16 µM
[24] = second compound 1 µM, first compound 10 µM
[25] = second compound 3.16 µM, first compound 0.0316 µM
[26] = second compound 3.16 µM, first compound 0.1 µM
[27] = second compound 3.16 µM, first compound 0.316 µM
[28] = second compound 3.16 µM, first compound 1 µM
[29] = second compound 3.16 µM, first compound 3.16 µM
[30] = second compound 3.16 µM, first compound 10 µM
[31] = second compound 10 µM, first compound 0.0316 µM
[32] = second compound 10 µM, first compound 0.1 µM
[33] = second compound 10 µM, first compound 0.316 µM
[34] = second compound 10 µM, first compound 1 µM
[35] = second compound 10 µM, first compound 3.16 µM
[36] = second compound 10 µM, first compound 10 µM
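Also: spheroids exposed to compounds for one week before readout.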
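For viability, T/C in this document: percent viability relative to DMSO vehicle wells taken as 100%.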

With `CC(C)n1c(=O)n(C)c2cnc3cc(F)c(-c4ccc(OCCCN5CCCCC5)nc4)cc3c21` + Cc1[nH]c2ccc(F)cc2c1-c1nc2c3cccnc3c3ncccc3c2[nH]1 the IC50 (second compound 0.0316 µM) was > 10 µM, the IC50 (second compound 0.1 µM) was 8.61 µM and the IC50 (second compound 0.316 µM) was 8.62 µM. The IC50 (second compound 1 µM) was > 10 µM, the IC50 (second compound 3.16 µM) was 7.88 µM and the IC50 (second compound 10 µM) was > 10 µM. It also gave a viability, T/C [1] of 104%, a viability, T/C [2] of 111% and a viability, T/C [3] of 92.5%. The viability, T/C [4] was 97.1%, the viability, T/C [5] was 86.2% and the viability, T/C [6] was 50.5%. It also gave a viability, T/C [7] of 104%, a viability, T/C [8] of 101% and a viability, T/C [9] of 96.3%. The viability, T/C [10] was 96.7%, the viability, T/C [11] was 92.9% and the viability, T/C [12] was 43.3%. It also gave a viability, T/C [13] of 88.6%, a viability, T/C [14] of 103% and a viability, T/C [15] of 105%. It also gave a viability, T/C [16] of 85%, a viability, T/C [17] of 106% and a viability, T/C [18] of 42.9%. It also gave a viability, T/C [19] of 114%, a viability, T/C [20] of 108% and a viability, T/C [21] of 93.7%. For the same compound, the viability, T/C [22] was 96.3%, the viability, T/C [23] was 92.7% and the viability, T/C [24] was 53.5%. It also gave a viability, T/C [25] of 80.7%, a viability, T/C [26] of 103% and a viability, T/C [27] of 97.6%. It also gave a viability, T/C [28] of 72.4%, a viability, T/C [29] of 93.8% and a viability, T/C [30] of 39.7%. It also gave a viability, T/C [31] of 99.2%, a viability, T/C [32] of 107% and a viability, T/C [33] of 83.5%. For the same compound, the viability, T/C [34] was 92.5%, the viability, T/C [35] was 85.2% and the viability, T/C [36] was 50%.
Compound `CC(C)n1c(=O)n(C)c2cnc3cc(F)c(-c4ccc(OCCCN5CCCCC5)nc4)cc3c21` + CN(C)c1ccc(Nc2c3ccc(NC(=O)CCN4CCCC4)cc3nc3cc(NC(=O)CCN4CCCC4)ccc23)cc1 has an IC50 (second compound 0.0316 µM) of 6.62 µM, an IC50 (second compound 0.1 µM) of 3.82 µM and an IC50 (second compound 0.316 µM) of 0.784 µM. The IC50 (second compound 1 µM) was 0.0428 µM, the IC50 (second compound 3.16 µM) was < 0.0316 µM and the IC50 (second compound 10 µM) was < 0.0316 µM. It also gave a viability, T/C [1] of 96.6%, a viability, T/C [2] of 88.6% and a viability, T/C [3] of 92.1%. The viability, T/C [4] was 86.7%, the viability, T/C [5] was 79% and the viability, T/C [6] was 34.3%. The viability, T/C [7] was 92.9%, the viability, T/C [8] was 79.9% and the viability, T/C [9] was 96.3%. It also gave a viability, T/C [10] of 81.9%, a viability, T/C [11] of 56% and a viability, T/C [12] of 20.6%. For the same compound, the viability, T/C [13] was 92.8%, the viability, T/C [14] was 65% and the viability, T/C [15] was 57.6%. The viability, T/C [16] was 47.2%, the viability, T/C [17] was 49.6% and the viability, T/C [18] was 10.5%. For the same compound, the viability, T/C [19] was 53.7%, the viability, T/C [20] was 44.7% and the viability, T/C [21] was 24.4%. For the same compound, the viability, T/C [22] was 34.4%, the viability, T/C [23] was 20.1% and the viability, T/C [24] was 7.52%. For the same compound, the viability, T/C [25] was 31.8%, the viability, T/C [26] was 12.2% and the viability, T/C [27] was 12.3%. It also gave a viability, T/C [28] of 4.69%, a viability, T/C [29] of 4.81% and a viability, T/C [30] of 1.25%. It also gave a viability, T/C [31] of 27.5%, a viability, T/C [32] of 3.95% and a viability, T/C [33] of 0.88%. The viability, T/C [34] was 0.42%, the viability, T/C [35] was 0.55% and the viability, T/C [36] was 4.73%.
